The target in the test is T1, glucocorticoid receptor (GR) (Rattus norvegicus, UniProt P06536).
T1 construct: cytosol preparations that consist of the thymus homogenates of rats; from tissue; host or cells: rat thymus homogenate, cytosol
T1 sequence (P06536 1-795): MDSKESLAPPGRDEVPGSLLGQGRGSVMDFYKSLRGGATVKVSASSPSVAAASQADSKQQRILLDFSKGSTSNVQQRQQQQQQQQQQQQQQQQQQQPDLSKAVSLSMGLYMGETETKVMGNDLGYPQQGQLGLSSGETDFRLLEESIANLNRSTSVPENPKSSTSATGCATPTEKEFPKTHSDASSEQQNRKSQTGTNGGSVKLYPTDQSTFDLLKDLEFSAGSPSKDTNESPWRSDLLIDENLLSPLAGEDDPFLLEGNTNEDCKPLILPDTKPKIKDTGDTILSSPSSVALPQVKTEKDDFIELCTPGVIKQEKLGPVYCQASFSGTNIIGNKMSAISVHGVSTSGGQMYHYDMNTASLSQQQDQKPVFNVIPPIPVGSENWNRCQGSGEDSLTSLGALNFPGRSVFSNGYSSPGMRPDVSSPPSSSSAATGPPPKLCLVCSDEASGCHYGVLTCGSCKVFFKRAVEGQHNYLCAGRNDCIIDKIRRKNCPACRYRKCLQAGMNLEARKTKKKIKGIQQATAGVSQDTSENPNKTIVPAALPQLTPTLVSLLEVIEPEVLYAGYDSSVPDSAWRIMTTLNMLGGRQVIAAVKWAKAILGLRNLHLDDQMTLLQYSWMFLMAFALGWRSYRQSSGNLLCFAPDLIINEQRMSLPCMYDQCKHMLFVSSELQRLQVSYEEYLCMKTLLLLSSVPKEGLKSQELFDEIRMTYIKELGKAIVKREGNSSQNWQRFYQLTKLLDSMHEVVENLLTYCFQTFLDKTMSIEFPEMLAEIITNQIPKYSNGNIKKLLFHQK
Kind of test: glucocorticoid receptor (GR)-binding test, cytosol of rat thymus homogenates, [3H]-dexamethasone.

The mark [1] stands for this setting: 10 nM [3H]-dexamethasone, rat thymus cytosol, read-out: IC50 (GR-binding test).

Each structure is given as a SMILES string. Read-outs that look alike come from different tables or passages of the source.

Take `CC(C)(CC(O)(C(=O)Nc1ccc2c(c1)COC2=O)C(F)(F)F)c1cc(F)ccc1O` (centres unmarked) [i, 5-[4-(5-Fluoro-2-hydroxyphenyl)-2-hydroxy-4-methyl-2-trifluoromethyl-valeroylamino]-phthalide]: the half-maximal inhibitory concentration (IC50) was 2.8 nM.

`COc1ccc(F)cc1C(C)(C)CC(O)(C(=O)Nc1ccc2c(=O)onc(C)c2c1)C(F)(F)F` (centres unmarked) [iii, 6-[4-(5-fluoro-2-methoxyphenyl)-2-hydroxy-4-methyl-2-trifluoromethyl-valeroylamino]-4-methyl-2,3-benzoxazin-1-one]: the IC50 under setting [1] came out at 4.6 nM.

In turn, `Cc1noc(=O)c2ccc(NC(=O)C(O)(CC(C)(C)c3cc(F)ccc3O)C(F)(F)F)cc12` (centres unmarked) [v, 6-[4-(5-fluoro-2-hydroxyphenyl)-2-hydroxy-4-methyl-2-trifluoromethyl-valeroylamino]-4-methyl-2,3-benzoxazin-1-one] gave an IC50 of 2.6 nM. For the compound `COc1cc(Br)ccc1C(C)(C)CC(O)(C(=O)Nc1ccc2c(=O)onc(C)c2c1)C(F)(F)F` (centres unmarked) [iv, 6-[4-(4-bromo-2-methoxyphenyl)-2-hydroxy-4-methyl-2-trifluoromethyl-valeroylamino]-4-methyl-2,3-benzoxazin-1-one], the IC50 under setting [1] amounted to 4.9 nM. With `CC(C)(CC(O)(CNc1ccc2c(c1)COC2=O)C(F)(F)F)c1cc(F)ccc1O` (centres unmarked) [ii, 5-[4-(5-fluoro-2-hydroxyphenyl)-2-hydroxy-4-methyl-2-trifluoromethyl-pentylamino]-phthalide], the concentration for half-maximal inhibition (IC50) under setting [1] came to 2.3 nM.

What is called IC50 is the concentration that inhibits the measured activity by half.
